Results reported in patent publication US20180200172A1, “REAGENTS AND METHODS FOR WHITENING TEETH” (UNIVERSITY OF WASHINGTON THROUGH ITS CENTER FOR …, priority 2015, published 2018).

Experiments:
[1] = Kinetic profile of mineral formation; settings: fast = immediate mineral formation; slow = about 5 minutes to about 1 hour
Procedure: Fast kinetics refers to fast mineral formation, such as immediate mineral formation, while slow mineral formation refers to mineral formation over a period of time, such as about 5 minutes to about 1 hour. In some embodiments, a first biomineralizing peptide having faster kinetics can be used in combination with a second biomineralizing peptide having slower kinetics.

[2] = In vitro re-mineralization of tea-stained human tooth with peptide solution; line profile analysis (Mean Pixel Intensity, ImageJ)
Procedure: A caries-free human tooth was sterilized in 1% bleach solution for 24 hours then removed and vigorously rinsed with deionized water. The root site was removed and the crown sectioned vertically using a diamond blade. Pictures were taken with a camera attached to an optical microscope.
The exposed dentine sites were etched with 35% phosphoric acid (Ultraetch™) for 60 seconds (to facilitate the stain intake). The etching gel was removed by rinsing the sample with distilled water for 3 minutes. The staining solution was prepared by boiling 2 g of tea in 100 ml of deionized water for 5 minutes, which was then cooled down to room temperature and filtered. The tooth was soaked in the staining solution and incubated at 37° C. at 150 rpm for 24 hours. The tooth was then removed from the staining solution and sonicated for 30 seconds in deionized water (sonic bath) to remove the excess amount of tea particles attached to tooth extrinsically. The sectioned tooth was cut vertically in half again to form two quarter sections of the tooth. FIGS. 2(a) to 2(g) show various sections of the tooth after the staining. […] Figures (b), (c) and (d) show different views of the left quarter of the tooth that was sectioned from the tooth. Figures (e), (f) and (g) show different views of the right quarter of the tooth that was sectioned from the tooth. As can be observed from FIGS. 2(a) to 2(g), brown stains from the staining solution were formed on the surface and below the surface of the tooth. The left quarter of the tooth was stored in 24 mM Tris Buffer (pH: 7.4) for control and the right quarter of the tooth (test tooth) was used for in vitro re-mineralization. The test tooth was submerged into peptide solution (600 μl) containing a mineralization polypeptide in a 48 well plate and incubated for 10 minutes at 37° C. After incubation, the tooth was removed and placed into to a new well. A mineralization solution of 400 μl of 9.6 mM CaCl2 and 400 μl of 5.6 mM KH2PO4 was added and quickly mixed by pipetting the solution up and down. […]

[3] = In vitro re-mineralization of tea-stained rat tooth with peptide solution; settings: peptide 10 min 37° C., then CaCl2/KH2PO4 16 hours 37° C., control in Tris buffer
Procedure: Rat teeth (molars) were obtained from sacrificed rats (for example, Sprague Dawley rats, age 3 weeks or older) from animal facility, collected, and stored in 100% alcohol. Prior to the re-mineralization experiments the teeth were stored in 1% bleach for 24 hours. […] The teeth were then dried in an incubator in air at 37° C. for 3-6 hours to produce dry surface. The root site and section the crown were removed vertically using a diamond blade. Pictures were taken with camera attached to optical microscope. Exposed dentine sites in the one half of the sectioned tooth were etched with 35% phosphoric acid (Ultraetch™) for 60 seconds (to facilitate the stain intake). The etching gel was removed by rinsing the sample with distilled water for 3 minutes. The staining solution was prepared by boiling 2 g of tea in 100 ml of deionized water for 5 minutes, and then cooled down to room temperature and filtered. The tooth sample was soaked in the staining solution and incubated at 37° C. at 150 rpm for 24 hours. The tooth was removed from the staining solution and sonicated for 30 seconds in deionized water (sonic bath) to remove the excess amount of tea particles attached to tooth extrinsically. The one half of the sectioned tooth was cut vertically into half again to form two quarter sections of the tooth. A second set of pictures were taken with camera attached to optical microscope. […]

[4] = Solution mineralization approach, 25 rounds, colour measured with Minolta Chroma Meter CR-200; settings: unstained sectioned human tooth, peptide 10 minutes, calcium/phosphate ions 2 hours 37° C.
Description: The root site of an extracted human tooth was removed and the crown portion of the tooth was sectioned vertically into half. A thin layer of enamel was removed from one half of the sectioned tooth such that the dentin layer is exposed without completely removing the enamel on the tooth. This allowed imaging of the enamel surfaces after the mineralization experiment without the problem of surface reflection, and provides a more parallel surface from which to compare the whiteness results. The sectioned tooth was fixed onto a glass slide with epoxy. Initial color measurements of each of the four sides of the sectioned tooth was obtained using a Minolta Chroma Meter CR-200 (Konica Minolta, Tokyo, Japan), according to manufacturer instructions, using a white background and a black background. The sectioned tooth was incubated in a mineralization polypeptide solution for 10 minutes at 37° C. and then in a solution with calcium ions and phosphate ions for 2 hours at 37° C. Color measurements of each of the four sides of the sample were taken as described initially. The sectioned was rinsed with deionized water and the remineralization process (incubation in polypeptide solution, incubation in solution of ion sources, and rinsing with deionized water) was repeated for a total of 25 rounds. The mineralization polypeptide was SYENSHSQAINVDRT (shADP5; SEQ ID NO:16).

[5] = Solution mineralization approach on tetracycline-stained human teeth; line profile analysis (Mean Pixel Intensity); settings: for Mean Pixel Intensity: shADP5 0.8 mM, tetracycline-stained
Description: Human teeth, donated by the University of Washington School of Dentistry (Seattle, Wash., USA), were selected for their clean, smooth surfaces. The teeth were sterilized in bleach, cut on a diamond blade to remove the root, and halved. A thin layer of the enamel surface was then cut on one of the halves parallel to the previous cut, such that the dentin layer could be seen without completely removing the enamel on the tooth. This allowed imaging of the enamel surfaces after the mineralization experiment without the problem of surface reflection encountered in previous experiments, in addition to a more parallel surface from which to compare the brightness or whiteness results. The cut enamel side of the tooth sample was then sonicated in DI water and polished on diamond slurry smooth out the surface for imaging. The sample was then cut into quarters, with the lower half selected for a tetracycline experiment because of the even distribution of dentin coloring in the lower quarters of the tooth sample. The samples were then stained in 10 mg/mL tetracycline solution for five days.
During mineralization, using a 96-well plate, one of the stained halves was stored in 1200 μL Tris (24 mM) as a negative control, and the experimental sample was incubated in 150 μL shADP5 (0.8 mM) at 37° C. for 10 minutes. The experimental sample was then rinsed of excess peptide with deionized water and then stored in 600 μL CaCl2 (9.6 mM), to which 600 μL monobasic KH2PO4 (5.76 mM) was added. The well plate containing both the control and experimental samples was then stored at 37° C. for about 24 hours for mineralization to occur on the treated stained tooth sample.
[…] After 27 rounds of mineralization on the experimental sample, the tooth was inspected for changes in brightness qualitatively. The stained negative control was polished to expose the original enamel stain in order to compare the whitening effect of the peptide mineralization.

Substance | kinetic profile (mineral formation) [1] | Mean Pixel Intensity ([2]; Whitened (stained and remineralized), 0 = completely black, 100 = completely white, Bar C in FIG. 4) | whiteness versus original tooth and stained tooth ([2]; after staining and remineralization, from MPI in FIG. 4) | colour of treated tooth quarter versus control ([2]; tea-stained human tooth, peptide 10 minutes 37° C., then CaCl2/KH2PO4 16 hours 37° C., control in Tris buffer) | colour of treated tooth quarter versus control [3] | whiteness of the tooth enamel [4] | Mean Pixel Intensity ([5]; After 3 rounds of remineralization, Bar B in FIG. 6) | Mean Pixel Intensity ([5]; After 4 rounds of remineralization, Bar C in FIG. 6) | Mean Pixel Intensity ([5]; After 5 rounds of remineralization, Bar D in FIG. 6) | Mean Pixel Intensity ([5]; After 7 rounds of remineralization, Bar E in FIG. 6) | whiteness of the stained tooth ([5]; repeated rounds of remineralization (3 to 7 rounds))
(HPP(S/T)HTLQPHHH(L/I)PVVPAQQPV (A/I)PQQPMMPVPG(H/Q)HSMTP(T/I)QH)1-10 [ADP7] | slow kinetic profile | – | – | – | – | – | – | – | – | – | –
(PGYIN(L/F)SYE(K/N)SHSQAIN(T/V)DRTA)1-10 [ADP5] | fast kinetic profile | – | – | – | – | – | – | – | – | – | –
SYENSHSQAINVDRT [shADP5, shortened amelogenin derived polypeptide ADP5] | – | 96.21 ± 2.39 | improved whiteness over the original tooth and the stained tooth | lighter in color than the left quarter (control) | lighter in color than the control | whiteness of the tooth enamel improved with each round of remineralization | 69.47 ± 2.96 | 70.11 ± 2.92 | 70.79 ± 1.96 | 74.47 ± 2.13 | whiteness of the stained tooth improves with repeated rounds of remineralization
